Source: PMC11725774 (Cancer Research Communications, 2025)
Where two headings read alike, the source gives them in different places.

Assays:
[1] = test system: Ba/F3 cells FLT3 ITD/D835Y; experiment: Growth inhibition of Ba/F3 cells; assay type: cell-based, murine; settings: Mus musculus, BaF3; Ba/F3 FLT3 ITD/D835Y; mean ± SD; read-out: GI50
Method: (§1) MV-4-11 cells expressing NRAS^G12D were prepared by transduction with a lentiviral vector encoding the NRAS^G12D mutation. Assays using a panel of parental Ba/F3 into which an additional copy of either WT or a mutant form of FLT3 was introduced were performed at Kyinno Biotechnology Co., Ltd. All cell lines were short tandem repeat authenticated at ATCC or at DSMZ when originally obtained, and no further authentication was done after receipt of the cells in the laboratory.
(§2) Assays using Ba/F3 cells expressing WT and mutant forms of FLT3 were performed by Kyinno Biotechnology. The cells were cultured in the medium recommended by the source for each cell line. Growth inhibition assays were performed using either Cell Titer 96 Aqueous One Solution Cell Proliferation assay (Promega, # G3581) or CCK8 (Dojindo, # CK-04). […] IC50 values were determined from growth inhibition curves fitted using GraphPad Prism and a nonlinear regression model with sigmoidal dose response. Unless otherwise indicated, data are presented as mean ± SEM.

Ba/F3 cells FLT3 ITD = experiment: Growth inhibition of Ba/F3 cells; assay type: cell-based, murine; settings: Mus musculus, BaF3; Ba/F3 FLT3 ITD; mean ± SD; read-out: GI50
Method: as §1, §2

[2] = test system: Ba/F3 cells FLT3 ITD/F691L; experiment: Growth inhibition of Ba/F3 cells; assay type: cell-based, murine; settings: Mus musculus, BaF3; Ba/F3 FLT3 ITD/F691L; mean ± SD; read-out: GI50
Method: as §1, §2

Ba/F3 cells FLT3 D835Y = experiment: Growth inhibition of Ba/F3 cells; assay type: cell-based, murine; settings: Mus musculus, BaF3; Ba/F3 FLT3 D835Y; mean ± SD; read-out: GI50
Method: as §1, §2

MOLM-13 cells = experiment: Growth inhibition of AML cell line; assay type: cell-based; settings: Homo sapiens, mean ± SD
Method: as §1, §2

MV-4-11 cells = experiment: Growth inhibition of AML cell line; assay type: cell-based, human
Method: as §1, §2

MOLM-14 cells (parental) = experiment: Growth inhibition of AML cell line; assay type: cell-based, human
Method: as §1, §2

TUS/R line 3 (MOLM-14) = experiment: Growth inhibition of TUS-resistant subline; assay type: cell-based, human; settings: for GI50: mean ± SEM (Supplementary Table 6)
TUS/R line 4 (MOLM-14) = experiment: Growth inhibition of TUS-resistant subline; assay type: cell-based, human; settings: for GI50: mean ± SEM (Supplementary Table 6)
TUS/R MOLM-14 cells = experiment: Growth inhibition of TUS-resistant sublines versus parental; assay type: cell-based, human
TUS/R line 2 (MOLM-14) = experiment: Growth inhibition of TUS-resistant subline; assay type: cell-based; settings: Homo sapiens, MOLM-14, read-out: IC50 (nmol/L), Mean ± SEM, TUS/R line 2
[3] = test system: MV-4-11 NRAS G12D Clone 15; experiment: Growth inhibition of NRAS G12D clone; assay type: cell-based, human; settings: for GI50: MV-4-11 NRAS G12D, mean ± SEM
Method: as §1, §2

[4] = test system: MV-4-11 NRAS G12D Clone 4; experiment: Growth inhibition of NRAS G12D clone; assay type: cell-based, human
Method: as §1, §2

[5] = test system: MV-4-11 NRAS G12D Clone 1; experiment: Growth inhibition of NRAS G12D clone; assay type: cell-based, human; settings: for GI50: MV-4-11 NRAS G12D, mean ± SEM
Method: as §1, §2

TUS/R line 1 (MOLM-14) = experiment: Growth inhibition of TUS-resistant subline; assay type: cell-based; settings: Homo sapiens, MOLM-14, read-out: IC50 (nmol/L), Mean ± SEM, TUS/R line 1
[6] = Homo sapiens, MV4-11, MV-4-11, mean ± SD (Supplementary Table 4), read-out: GI50
[7] = Homo sapiens, MOLM-14, mean ± SD (Supplementary Table 4), read-out: GI50
[8] = Homo sapiens, MOLM-14, read-out: GI50 (nM) TUS/R line 3
[9] = Homo sapiens, MOLM-14, read-out: GI50 (nM) TUS/R line 4
[10] = Homo sapiens, MOLM-14, mean ± SEM (Supplementary Table 6), read-out: GI50 (nM) Parental MOLM-14 (converted)
[11] = 13 to […]-fold increase in NRAS G12D expression
[12] = Homo sapiens, MV4-11, MV-4-11 NRAS G12D, high expression, mean ± SEM, read-out: GI50 (nM) Clone 4
[13] = Homo sapiens, MV4-11, mean ± SEM (Supplementary Table 7), read-out: GI50 (nM) Parental (MV-4-11)

Row | Compound | GI50 (TUS/R line 3 (MOLM-14); [8]) [nM] | GI50 (TUS/R line 4 (MOLM-14); [9]) [nM] | fold hypersensitive, TUS/R versus parental MOLM-14 (TUS/R MOLM-14 cells) | GI50 (MOLM-14 cells (parental); [10]) [nM] | GI50 ([3]; Homo sapiens, MV4-11) [nM] | GI50 ([5]; Homo sapiens, MV4-11) [nM] | GI50 (MV-4-11 cells; [13]) [nM] | also measured
1 | CO[C@@H]1[C@H](N(C)C(=O)c2ccccc2)C[C@H]2O[C@]1(C)n1c3ccccc3c3c4c(c5c6ccccc6n2c5c31)C(=O)NC4 [Midostaurin, midostaurin] | – | – | – | – | – | – | – | GI50 [1]: 21 ± 1.1 nM; GI50 (Ba/F3 cells FLT3 ITD): 5.1 ± 0.1 nM; GI50 [2]: 16 ± 3.5 nM; GI50 (Ba/F3 cells FLT3 D835Y): 9 ± 2.7 nM; GI50 (MOLM-13 cells): 19 ± 14 nM; GI50 (MV-4-11 cells; [6]): 6 ± 1.4 nM; GI50 (MOLM-14 cells (parental); [7]): 12 ± 7.1 nM
2 | CC1(C)CCC(c2ccc(Cl)cc2)=C(CN2CCN(c3ccc(C(=O)NS(=O)(=O)c4ccc(N[C@H](CCN5CCOCC5)CSc5ccccc5)c(S(=O)(=O)C(F)(F)F)c4)cc3)CC2)C1 [Navitoclax, navitoclax] | 15.3 ± 2.4 | 15 ± 2.1 | ~27 fold | 410 ± 50.2 | – | – | – | –
3 | CC1(C)CCC(CN2CCN(c3ccc(C(=O)NS(=O)(=O)c4ccc(NCC5CCOCC5)c([N+](=O)[O-])c4)c(Oc4cnc5[nH]ccc5c4)c3)CC2)=C(c2ccc(Cl)cc2)C1 [Venetoclax, venetoclax] | – | – | – | – | 4.9 ± 1.3 | 5.5 ± 1.4 | 10.5 ± 1.7 | IC50 (TUS/R line 2 (MOLM-14)): 1.5 ± 0.05 nmol/L; IC50 (TUS/R line 3 (MOLM-14); Homo sapiens, MOLM-14, read-out: IC50 (nmol/L), Mean ± SEM, TUS/R line 3): 1.1 ± 0.2 nmol/L; IC50 (TUS/R line 4 (MOLM-14); Homo sapiens, MOLM-14, read-out: IC50 (nmol/L), Mean ± SEM, TUS/R line 4): 5 ± 0.8 nmol/L; change in sensitivity, clone 15 [3, 11]: did not alter sensitivity; GI50 [4, 12]: 2260 ± 156 nM; fold resistant / loss of sensitivity, clone 4 versus parental MV-4-11 ([4]; high NRAS G12D expression): 214 fold; change in sensitivity, clone 1 [5, 11]: did not alter sensitivity; IC50 (TUS/R line 1 (MOLM-14)): 1.3 ± 0.1 nmol/L; IC50 (MOLM-14 cells (parental); Homo sapiens, MOLM-14, growth inhibition, three independent experiments, read-out: IC50 (nmol/L), Mean ± SEM, MOLM-14 parental): 3020 ± 464 nmol/L
4 | CC(=O)Nc1cccc(-n2c(=O)n(C3CC3)c(=O)c3c(Nc4ccc(I)cc4F)n(C)c(=O)c(C)c32)c1 [Trametinib, trametinib] | 67 ± 12.8 | 101.5 ± 0.4 | ~1.9 fold | 153 ± 14.5 | 2.3 ± 0.8 | 1.6 ± 0.4 | 6.7 ± 1.6 | GI50 [4, 12]: 2.5 ± 0.7 nM
5 | Cc1c(-c2c(-c3ccc(F)o3)sc3ncnc(O[C@H](Cc4ccccc4OCc4ccnn4CC(F)(F)F)C(=O)O)c23)ccc(OCCN2CCN(C)CC2)c1Cl [S63845] | – | – | ~20 fold | – | – | – | – | GI50 (TUS/R line 3 (MOLM-14); read-out: GI50 (nM) TUS/R line 3): 5.6 ± 0.7 nM; GI50 (TUS/R line 4 (MOLM-14); read-out: GI50 (nM) TUS/R line 4): 4.6 ± 0.3 nM; GI50 [3]: 1.5 ± 0.1 nM; GI50 ([4]; MV-4-11 NRAS G12D, high expression, mean ± SEM, read-out: GI50 (nM) Clone 4): 7.3 ± 1.5 nM; GI50 [5]: 1.1 ± 0.3 nM; GI50 (MV-4-11 cells; mean ± SEM (Supplementary Table 7), read-out: GI50 (nM) Parental (MV-4-11)): 4.6 ± 0.4 nM; GI50 (MOLM-14 cells (parental); mean ± SEM (Supplementary Table 6), read-out: GI50 (nM) Parental MOLM-14 (converted)): 105 ± 19.8 nM
6 | COC1=CC(c2cc3ccccc3[nH]2)=N/C1=C\c1[nH]c(C)cc1C [Obatoclax, obatoclax] | 164 ± 14.7 | 142 ± 9.1 | no increase in sensitivity | 98.2 ± 7.7 | – | – | – | –
7 | Cc1c2c(nn1C)CSCc1cc(n(C)n1)CSc1cc(c3ccccc3c1)OCCCc1c(C(=O)O)n(C)c3c-2c(Cl)ccc13 [AZD5991] | 22.8 ± 2.7 | 18.2 ± 1.6 | ~8 fold | 168 ± 33.7 | 7.2 ± 0.4 | 10.1 ± 3.2 | 32.5 ± 5.4 | GI50 [4, 12]: 44.3 ± 8.3 nM
8 | Cc1ccc2c(Nc3cccc(Cl)c3F)nccc2c1NC(=O)c1csc2c(N)ncnc12 [Belvarafenib, belvarafenib] | – | – | – | – | 104 ± 11.1 | 187 ± 38.6 | 750 ± 92.8 | GI50 [4, 12]: 209 ± 33.9 nM
9 | Nc1ncn([C@@H]2O[C@H](CO)[C@@H](O)[C@H]2O)c(=O)n1 [5-Azacytidine, 5-azacytidine] | 1620 ± 294 | 1580 ± 145 | – | 2140 ± 231 | – | – | – | –
10 | N#CC[C@H](C1CCCC1)n1cc(-c2ncnc3[nH]ccc23)cn1 [Ruxolitinib, ruxolitinib] | ~1100 | ~1130 | – | – | – | – | – | –
11 | CC(C)(C)c1cc(NC(=O)Nc2ccc(-c3cn4c(n3)sc3cc(OCCN5CCOCC5)ccc34)cc2)no1 [Quizartinib, quizartinib] | 0.2 ± 0.1 | 0.5 ± 0.1 | – | 0.5 ± 0.02 | 1.3 ± 0.4 | 1.1 ± 0.2 | 0.5 ± 0.1 | GI50 ([4]; Homo sapiens, MV4-11, read-out: GI50 (nM) Clone 4): 1.9 ± 0.5 nM; GI50 (MOLM-13 cells): 0.9 ± 0.5 nM; GI50 (MV-4-11 cells; [6]): 0.2 ± 0.1 nM; GI50 (MOLM-14 cells (parental); [7]): 0.6 ± 0.2 nM
12 | COc1cc(Nc2ncc(F)c(Nc3ccc4c(n3)N(COP(=O)(O)O)C(=O)C(C)(C)O4)n2)cc(OC)c1OC [Fostamatinib, fostamatinib] | 176 ± 32.9 | 459 ± 86.2 | not more sensitive | – | – | – | – | –
13 | Cc1cnc(-c2ccc(-c3ccc(NC(=O)Nc4c(F)cc(F)cc4F)cc3F)c3c2C(=O)NC3)[nH]1 [Luxeptinib] | 0.1 ± 0.01 | 0.1 ± 0.01 | – | 0.2 ± 0.01 | – | – | – | –
14 | Cn1c(=O)n(-c2ccc(C(C)(C)C#N)cc2)c2c3cc(-c4cnc5ccccc5c4)ccc3ncc21 [Dactolisib, dactolisib] | 28.9 ± 2.7 | 26.8 ± 1.8 | not more sensitive | 21.3 ± 1.4 | – | – | – | –
